Patent publication US20080221021A1, “Novel Corticotropin-Releasing Factor Receptor 1 (Crfr1) Agonist” (Max-Planck-Gesellschaft Zur Forderung Der, priority 2004, published 2008)
“Also recorded” adds a separate entry of the source. Where no end group is shown, it is not given here.

Assays:
[1] = assay type: physicochemical
Method: A high solubility under physiological conditions is a crucial prerequisite especially for compounds to be injected into the rodent brain. […] Both peptides were soluble in a concentration range of up to 1000 μM (FIG. 6), so that there was no limitation in view of the agonist doses typically used in behavioral experiments. […] Consequently, solutions of cortagine to be used in the pharmacological assays were prepared in phosphate buffered saline (PBS; pH=7.4).

rCRFR1 [2] = molecular target: T1, rCRFR1 (Rattus norvegicus, UniProt P35353); experiment: Agonist-induced intracellular cAMP accumulation in HEK 293 cells producing rCRFR1; assay type: cell-based
T1 construct: expressed in transfected cells
T1 sequence (P35353 24-415): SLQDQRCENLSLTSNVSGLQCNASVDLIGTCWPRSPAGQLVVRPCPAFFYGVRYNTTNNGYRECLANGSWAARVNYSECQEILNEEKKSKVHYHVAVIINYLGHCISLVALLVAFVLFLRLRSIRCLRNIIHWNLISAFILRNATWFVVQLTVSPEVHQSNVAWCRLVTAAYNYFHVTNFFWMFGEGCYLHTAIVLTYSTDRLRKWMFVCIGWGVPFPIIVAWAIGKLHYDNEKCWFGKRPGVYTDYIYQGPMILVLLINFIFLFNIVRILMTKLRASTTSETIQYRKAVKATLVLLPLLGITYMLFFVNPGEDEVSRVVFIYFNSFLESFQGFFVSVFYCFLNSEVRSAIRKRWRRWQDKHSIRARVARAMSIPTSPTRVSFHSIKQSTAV
Method: The biological potency of cortagine and OCRF was evaluated by the determination of the EC50 values for agonist-induced intracellular accumulation of cAMP in HEK 293 cells producing either rCRFR1 or mCRFR2β.
The HEK 293 cells were plated into 24 well cell culture plates and stimulated as described (21) using increasing concentrations of the agonists under investigation. Intracellular cAMP was measured with the Biotrak™ cAMP [^125I] SPA system (Amersham Pharmacia Biotech) according to the manufacturer's product manual.

C57BL/6J mice [3] = experiment: Elevated plus-maze test, i.c.v. injection; assay type: in vivo, mouse; settings: for anxiety-like behavior (time spent in open arms, number of open arm entries) / locomotor activity (total distance crossed): 30 min before EPM, vs aCSF
Method: (§1) Nine-week old male C57BL/6J (Centre D'Elevage Janvier, Sultzfeld, France) were individually housed in macrolon cages according to the recommendations of the Society for Laboratory Animal Science (Germany). All experiments were carried out in accordance with the European Council Directive (86/609/EEC) with the permission of the Animal Protection Law enforced by the District Government of Braunschweig, State of Lower Saxony, Germany, which is in full agreement with the APA ethical guidelines. All efforts were made to minimize animal suffering. The number of mice per group was 9-11.
All peptides were dissolved in aCSF except for the CRFR2-selective antagonist antisauvagine-30 (aSvg-30) (20) that was initially dissolved in 10 mM aqueous acetic acid and diluted with the same volume of two-fold concentrated aCSF. The final pH of the peptide solutions was 7.4. The exact peptide concentration of the injection solutions was determined by amino acid analysis with a Beckman HPLC analyzer system 6300. Total hydrolysis of the peptides was carried out in the presence of 1 nmol norvaline as internal standard with 6 M HCl for 24 h at 100° C.
The elevated plus-maze (EPM) behavior of C57BL/6J mice cannulated in the lateral ventricles or lateral intermediate septal area (23) was investigated 30 min after injection of the CRFR1 agonist under investigation for 5 min in the EPM test (24). The CRFR2-selective antagonist aSvg-30 in aCSF or aCSF alone were injected 15 min before agonist administration. The behavior of the mice was recorded by a video camera connected to a PC and analyzed by the Technical & Scientific Equipment software VIDEOMOT 2. The time spent, distance crossed, and number of entries in the open arms, closed arms, and center were recorded. The cannular placement was confirmed for each mouse by histological examination of the brains after methylene blue injection (23). The behavioral data are expressed as mean±SEM, and were analyzed using a two- and one-way ANOVA, with Bonferroni/Dunn test applied, post hoc, for individual between-group comparisons at the p<0.05 level of significance. Shift of preference from the open to the closed arms was interpreted as an increase of anxiety-like behavior. Locomotor activity was determined with this test by the distance travelled.

rCRFBP = molecular target: T2, rCRFBP (Rattus norvegicus, UniProt P24388); experiment: Competition binding scintillation proximity assay, rCRFBP; settings: binding analysis, in words
T2 construct: His6 (C); made in house; host or cells: HEK 293 cells, stably transfected
T2 sequence (P24388 25-322): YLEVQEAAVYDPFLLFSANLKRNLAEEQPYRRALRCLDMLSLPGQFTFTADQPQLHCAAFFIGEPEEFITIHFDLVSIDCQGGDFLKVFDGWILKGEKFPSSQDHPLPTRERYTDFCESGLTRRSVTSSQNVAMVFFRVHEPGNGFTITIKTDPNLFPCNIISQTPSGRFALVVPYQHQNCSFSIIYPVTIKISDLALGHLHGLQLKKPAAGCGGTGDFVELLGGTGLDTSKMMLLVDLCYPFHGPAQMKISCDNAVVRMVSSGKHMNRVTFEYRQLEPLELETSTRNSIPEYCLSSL
Method: (§2) Crude membrane fractions were prepared from human embryonic kidney (HEK) 293 cells stably expressing either cloned rat CRFR1α(rCRFR1) or mouse CRFR2β (mCRFR2β) as described (20). Rat CRFBP (rCRFBP) was produced in HEK 293 cells stably transfected with cDNA coding for rCRFBP C-terminally fused with a His6 sequence as described (36). The scintillation proximity assays (SPA) for binding analysis of CRFR and CRFBP have been already described in detail (21, 22). For competition binding assays of rCRFR1 and rCRFBP, [^125I-Tyr^0]h/rCRF was used as radiolabeled peptide, whereas [^125I-Tyr^0]Svg was employed for mCRFR2β.

mCRFR2β = molecular target: T3, mCRFR2β (Mus musculus, UniProt Q60748); experiment: Competition binding scintillation proximity assay, mCRFR2β membranes
T3 construct: expressed in transfected cells
Method: as §2

rCRFR1 [4] = molecular target: T1, rCRFR1; experiment: Competition binding scintillation proximity assay, rCRFR1 membranes
Method: as §2

C57BL/6J mice [5] = experiment: Elevated plus-maze test, intraseptal (i.s.) injection; assay type: in vivo, mouse; settings: 100 ng into lateral septum (i.s.), 30 min before EPM, vs aCSF
Method: as §1
All peptides were dissolved in aCSF except for the CRFR2-selective antagonist antisauvagine-30 (aSvg-30) (20) that was initially dissolved in 10 mM aqueous acetic acid and diluted with the same volume of two-fold concentrated aCSF. The final pH of the peptide solutions was 7.4. The exact peptide concentration of the injection solutions was determined by amino acid analysis with a Beckman HPLC analyzer system 6300. […]
The elevated plus-maze (EPM) behavior of C57BL/6J mice cannulated in the lateral ventricles or lateral intermediate septal area (23) was investigated 30 min after injection of the CRFR1 agonist under investigation for 5 min in the EPM test (24). […] The behavior of the mice was recorded by a video camera connected to a PC and analyzed by the Technical & Scientific Equipment software VIDEOMOT 2. […]

[6] = i.c.v., two-way ANOVA over doses, EPM

T3 sequence (Q60748 1-431 isoform Q60748-2): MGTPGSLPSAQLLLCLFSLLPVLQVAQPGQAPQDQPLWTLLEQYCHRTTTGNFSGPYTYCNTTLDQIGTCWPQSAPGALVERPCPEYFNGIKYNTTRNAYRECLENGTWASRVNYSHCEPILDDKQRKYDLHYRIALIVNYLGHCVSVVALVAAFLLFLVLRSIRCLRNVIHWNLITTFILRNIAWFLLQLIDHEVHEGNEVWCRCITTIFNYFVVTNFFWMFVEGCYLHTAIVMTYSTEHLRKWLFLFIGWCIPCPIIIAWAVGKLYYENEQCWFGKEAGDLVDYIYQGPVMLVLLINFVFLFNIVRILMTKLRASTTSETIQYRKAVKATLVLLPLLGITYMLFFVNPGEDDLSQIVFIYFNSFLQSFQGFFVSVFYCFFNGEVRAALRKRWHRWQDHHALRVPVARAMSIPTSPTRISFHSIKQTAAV

With “[Glu^21, Ala^40] [Svg^1-12]x[h/rCRF^14-30]x[Svg^30-40] (XGPPISIDLSLELLREVLEMERAEQLAQQAANNRLLLDTA; X not resolved here; ends and bridges not checked; also: Glx at position 1 not given here (Gln/Glu/pGlu)) [cortagine]” the “solubility in 10 mM aqueous acetic acid” value [1] was “insoluble”, the “biological potency at rCRFR1” value (rCRFR1 [2]; cAMP accumulation, in words) was “high agonistic potency and high” and the “CRFR1-selectivity over CRFR2β, EC50(mCRFR2)/EC50(rCRFR1)” value (rCRFR1 [2]; ratio of biological potencies (cAMP)) was 89. The “anxiety-like behavior (time spent in open arms, number of open arm entries)” value (from here on “anxiety-like behavior”) (C57BL/6J mice [3]; 10 ng i.c.v.) was “ineffective”, the “locomotor activity (total distance crossed)” value (C57BL/6J mice [3]; 10 ng i.c.v.) was “ineffective” and the “anxiety-like behavior” value (C57BL/6J mice [3]; 30 ng i.c.v.) was “significantly decreased time spent in open arms; also recorded: increased significantly anxiety-like behavior; also recorded: increased anxiety levels”. The “locomotor activity (total distance crossed)” value (C57BL/6J mice [3]; 30 ng i.c.v.) was “decreased significantly; also recorded: reduced locomotor activity”, the “anxiety-like behavior” value (C57BL/6J mice [3]; 100 ng i.c.v.) was “increased significantly anxiety-like behavior; also recorded: increased anxiety levels” and the “locomotor activity (total distance crossed)” value (C57BL/6J mice [3]; 100 ng i.c.v.) was “decreased significantly; also recorded: reduced locomotor activity”. For the same substance, the “anxiety-like behavior” value (C57BL/6J mice [3]; 300 ng i.c.v.) was “increased significantly anxiety-like behavior; also recorded: increased anxiety levels”, the “locomotor activity (total distance crossed)” value (C57BL/6J mice [3]; 300 ng i.c.v.) was “decreased significantly; also recorded: reduced locomotor activity” and the “ability to modulate locomotor activity, cortagine vs oCRF” value (C57BL/6J mice [3]; [6]) was “did not differ”. For the same substance, the “anxiogenic potency compared to oCRF” value (C57BL/6J mice [3]; [6]) was “significantly higher anxiogenic potency; also recorded: doses lower than required of OCRF”, the “affinity to CRFBP” value (rCRFBP) was “negligible; also recorded: does not display any detectable affinity” and the “affinity to CRFBP” value (rCRFBP; listed as compound 9) was “completely abolished”. For the same substance, the “affinity for CRFR2” value (mCRFR2β; binding analysis, in words) was “negligible”, the “change in affinity for CRFR2 in comparison to parent peptide” value (mCRFR2β; compound 8 vs compound 6, compound 9 vs compound 8) was “no significant change” and the “selectivity for CRFR1” value (rCRFR1 [4]; binding analysis, CRFR1 vs CRFR2, in words) was “high selectivity for rCRFR1 over mCRFR2β”. The “change in affinity to CRFR1 in comparison to parent peptide” value (rCRFR1 [4]; compound 8 vs compound 6, compound 9 vs compound 8, Nle20 analog vs compound 9) was “no significant change”, the “CRFR1-selectivity over CRFR2β, IC50(mCRFR2)/IC50(rCRFR1)” value (rCRFR1 [4]; ratio of binding affinities) was 208 and the “anxiety-like behavior” value (C57BL/6J mice [5]) was “not”.
